Source: patent US20260317320A1, “C5AR1 ANTAGONISTS AND USES THEREOF” (Vanqua Bio, Inc., priority 2022, published 2026)

Legend:
[1] = target: T1, complement C5a receptor 1 (C5aR1) (Homo sapiens, UniProt P21730); assay: β-arrestin recruitment via C5aR1 activation in live CHO-K1 cells (PathHunter), antagonist mode; assay type: cell-based; conditions: antagonist mode; recombinant hC5a (EC90) as competing natural agonist; live CHO-K1 cells; read-out: [Antagonist] B-arrestin2 recruitment: Average IC50
T1 construct: β-galactosidase fragment (PathHunter enzyme complementation); host or cells: CHO-K1 (PathHunter CHO-K1 C5aR1 β-arrestin cell line)
T1 sequence (P21730 1-350): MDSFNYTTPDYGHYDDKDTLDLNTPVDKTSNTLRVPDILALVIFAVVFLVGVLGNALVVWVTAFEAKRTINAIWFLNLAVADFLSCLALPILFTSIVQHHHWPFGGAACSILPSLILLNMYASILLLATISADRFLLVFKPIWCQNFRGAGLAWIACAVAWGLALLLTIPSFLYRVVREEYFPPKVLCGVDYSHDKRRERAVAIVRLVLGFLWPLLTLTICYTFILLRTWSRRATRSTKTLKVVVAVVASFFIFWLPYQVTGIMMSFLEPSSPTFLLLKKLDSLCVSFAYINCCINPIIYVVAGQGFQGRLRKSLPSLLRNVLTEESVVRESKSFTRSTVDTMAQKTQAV
Outline: (§1)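 β-arrestin recruitment to C5aR1 in CHO-K1 cells is detected by enzyme-fragment complementation. Antagonism is measured against recombinant hC5a at its EC90; agonism is measured with compound alone. Potencies are grouped into IC50 categories.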

[2] = target: T1, complement C5a receptor 1 (C5aR1); assay: β-arrestin recruitment via C5aR1 activation in live CHO-K1 cells (PathHunter), agonist mode; assay type: cell-based; conditions: at 10 μM
Outline: as §1

| SMILES | IC50 [1] [µM] | [Agonist] B-arrestin2 recruitment: Average EC50 (nM) [2] |
| --- | --- | --- |
| Cc1cnc2cc([C@H]3CC[C@H](c4c(C)cccc4F)CC3)c(=O)n(Cc3ncccc3CC(F)(F)F)c2n1 [compound 219, 7-((1r,4r)-4-(2-Fluoro-6-methylphenyl)cyclohexyl)-3-methyl-5-((3-(2,2,2-trifluoroethyl)pyridin-2-yl)methyl) pyrido[2,3-b]pyrazin-6(5H)-one] | < 0.5 | Non-Active at 10 μM |
| Cc1cnc2cc([C@H]3CC[C@H](c4c(C)cccc4F)CC3)c(=O)n(Cc3ncccc3C3CC3)c2n1 [compound 220, 5-((3-Cyclopropylpyridin-2-yl)methyl)-7-((1r,4r)-4-(2-fluoro-6-methylphenyl)cyclohexyl)-3-methylpyrido[2,3-b]pyrazin-6(5H)-one] | < 0.5 | Non-Active at 10 μM |
| Cc1cnc2cc([C@H]3CC[C@H](c4c(C)cccc4F)CC3)c(=O)n(Cc3nccnc3C3CC3)c2n1 [compound 221, 5-((3-Cyclopropylpyrazin-2-yl)methyl)-7-((1r,4r)-4-(2-fluoro-6-methylphenyl)cyclohexyl)-3-methylpyrido[2,3-b]pyrazin-6(5H)-one] | < 0.5 | Non-Active at 10 μM |
| Cc1cnc2cc([C@H]3CC[C@H](c4c(F)cccc4F)CC3)c(=O)n(Cc3ncccc3C(F)(F)F)c2n1 [compound 222, 7-((1r,4r)-4-(2,6-Difluorophenyl)cyclohexyl)-3-methyl-5-((3-(trifluoromethyl)pyridin-2-yl)methyl)pyrido[2,3-b]pyrazin-6(5H)-one] | < 0.5 | Non-Active at 10 μM |
| Cc1ccc2cc([C@H]3CC[C@H](c4c(F)cccc4F)CC3)c(=O)n(Cc3ncccc3C(F)(F)F)c2n1 [compound 223, 3-((1r,4r)-4-(2,6-Difluorophenyl)cyclohexyl)-7-methyl-1-((3-(trifluoromethyl)pyridin-2-yl)methyl)-1,8-naphthyridin-2(1H)-one] | < 0.5 | Non-Active at 10 μM |
| Cc1cnc2cc([C@H]3CC[C@H](c4c(C)cccc4F)CC3)c(=O)n(Cc3ccccc3C(F)(F)F)c2n1 [compound 224, 7-((1r,4r)-4-(2-Fluoro-6-methylphenyl)cyclohexyl)-3-methyl-5-(2-(trifluoromethyl)benzyl)pyrido[2,3-b]pyrazin-6(5H)-one] | < 0.5 | Non-Active at 10 μM |
| Cc1ccc2cc([C@H]3CC[C@H](c4c(C)cccc4F)CC3)c(=O)n(Cc3ccccc3C(F)(F)F)c2n1 [compound 225, 3-((1r,4r)-4-(2-Fluoro-6-methylphenyl)cyclohexyl)-7-methyl-1-(2-(trifluoromethyl)benzyl)-1,8-naphthyridin-2(1H)-one] | < 0.5 | Non-Active at 10 μM |
| Cc1cccc(F)c1[C@H]1CC[C@H](c2cc3nc(CC(F)F)cnc3n(Cc3ncccc3C(F)(F)F)c2=O)CC1 [compound 226, 2-(2,2-Difluoroethyl)-7-((1r,4r)-4-(2-fluoro-6-methylphenyl)cyclohexyl)-5-((3-(trifluoromethyl)pyridin-2-yl)methyl)pyrido[2,3-b]pyrazin-6(5H)-one] | < 0.5 | Non-Active at 10 μM |
| CCCc1cnc2cc([C@H]3CC[C@H](c4c(C)cccc4F)CC3)c(=O)n(Cc3ncccc3C(F)(F)F)c2n1 [compound 227, 7-((1r,4r)-4-(2-Fluoro-6-methylphenyl)cyclohexyl)-3-propyl-5-((3-(trifluoromethyl)pyridin-2-yl)methyl)pyrido[2,3-b]pyrazin-6(5H)-one] | < 0.5 | Non-Active at 10 μM |
| Cc1cccc(F)c1[C@H]1CC[C@H](c2cc3nc(CC(F)(F)F)cnc3n(Cc3ncccc3C(F)(F)F)c2=O)CC1 [compound 228, 7-((1r,4r)-4-(2-Fluoro-6-methylphenyl)cyclohexyl)-2-(2,2,2-trifluoroethyl)-5-((3-(trifluoromethyl)pyridin-2-yl)methyl)pyrido[2,3-b]pyrazin-6(5H)-one] | < 0.5 | Non-Active at 10 μM |
